# What was measured:
# hA3AR = biological target: T1, hA3AR (Homo sapiens, UniProt P0DMS8); experiment: Radioligand binding in membranes of CHO cells expressing hA3AR; settings: read-out: A3AR % inhibition or Ki; for Ki: (h)
# T1 construct: expressed in transfected cells; host or cells: CHO
# T1 sequence (P0DMS8 1-318): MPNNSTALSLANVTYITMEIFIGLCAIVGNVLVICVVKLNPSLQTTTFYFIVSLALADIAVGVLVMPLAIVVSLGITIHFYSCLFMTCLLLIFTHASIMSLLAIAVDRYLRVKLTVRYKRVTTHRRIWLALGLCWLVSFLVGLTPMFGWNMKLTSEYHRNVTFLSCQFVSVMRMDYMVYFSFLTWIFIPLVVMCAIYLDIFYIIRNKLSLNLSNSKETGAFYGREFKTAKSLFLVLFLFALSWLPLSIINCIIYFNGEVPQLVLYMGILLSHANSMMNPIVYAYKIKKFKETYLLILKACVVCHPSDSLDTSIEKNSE
# serotonin receptor 5HT2B = serotonin receptor 5HT2B (Homo sapiens, UniProt P41595); experiment: Off-target interaction determined by the PDSP; type: binding; settings: read-out: Off-target, receptor (h, unless noted) (Ki, μM): 5HT2B
# Chain of serotonin receptor 5HT2B (P41595 whole entry): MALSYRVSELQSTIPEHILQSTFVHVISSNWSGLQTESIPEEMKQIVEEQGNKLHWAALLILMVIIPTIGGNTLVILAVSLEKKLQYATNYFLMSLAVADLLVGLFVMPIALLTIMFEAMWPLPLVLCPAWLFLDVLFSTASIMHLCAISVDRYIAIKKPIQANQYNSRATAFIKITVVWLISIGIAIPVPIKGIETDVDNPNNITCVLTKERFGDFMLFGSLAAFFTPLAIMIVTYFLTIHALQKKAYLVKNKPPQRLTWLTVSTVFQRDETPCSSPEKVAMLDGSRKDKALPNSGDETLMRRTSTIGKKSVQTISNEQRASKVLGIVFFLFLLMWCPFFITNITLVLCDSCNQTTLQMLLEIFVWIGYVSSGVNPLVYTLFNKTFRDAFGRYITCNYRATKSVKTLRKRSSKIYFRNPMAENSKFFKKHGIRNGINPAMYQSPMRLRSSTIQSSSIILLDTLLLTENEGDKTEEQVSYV
# sigma receptor σ2 = sigma receptor σ2 (UniProt Q5BJF2); experiment: Off-target interaction determined by the PDSP; type: binding, human; settings: read-out: Off-target, receptor (h, unless noted) (Ki, μM): σ2
# serotonin receptor 5HT2C = biological target: T2, serotonin receptor 5HT2C (Homo sapiens, UniProt P28335); experiment: Off-target interaction determined by the PDSP; type: binding; settings: read-out: Off-target, receptor (h, unless noted) (Ki, μM): 5HT2C
# T2 sequence (P28335 33-458): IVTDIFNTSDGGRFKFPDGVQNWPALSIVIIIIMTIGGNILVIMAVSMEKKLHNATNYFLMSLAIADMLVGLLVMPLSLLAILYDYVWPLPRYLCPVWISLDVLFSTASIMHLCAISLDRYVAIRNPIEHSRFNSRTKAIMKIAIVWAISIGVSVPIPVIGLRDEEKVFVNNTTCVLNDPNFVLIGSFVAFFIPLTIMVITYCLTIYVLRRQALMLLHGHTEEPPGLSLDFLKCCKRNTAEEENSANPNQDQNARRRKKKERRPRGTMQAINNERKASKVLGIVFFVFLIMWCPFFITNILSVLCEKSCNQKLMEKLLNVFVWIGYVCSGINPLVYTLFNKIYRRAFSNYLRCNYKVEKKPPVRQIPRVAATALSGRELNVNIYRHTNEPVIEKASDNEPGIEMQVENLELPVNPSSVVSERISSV
# hA1AR = biological target: T3, hA1AR (Homo sapiens, UniProt P30542); experiment: Radioligand binding in membranes of CHO cells expressing hA1AR, [3H]N6-R-phenylisopropyladenosine; settings: (h); Ki; read-out: A1AR % inhibition or Ki
# T3 construct: expressed in transfected cells; host or cells: CHO
# T3 sequence (P30542 1-326): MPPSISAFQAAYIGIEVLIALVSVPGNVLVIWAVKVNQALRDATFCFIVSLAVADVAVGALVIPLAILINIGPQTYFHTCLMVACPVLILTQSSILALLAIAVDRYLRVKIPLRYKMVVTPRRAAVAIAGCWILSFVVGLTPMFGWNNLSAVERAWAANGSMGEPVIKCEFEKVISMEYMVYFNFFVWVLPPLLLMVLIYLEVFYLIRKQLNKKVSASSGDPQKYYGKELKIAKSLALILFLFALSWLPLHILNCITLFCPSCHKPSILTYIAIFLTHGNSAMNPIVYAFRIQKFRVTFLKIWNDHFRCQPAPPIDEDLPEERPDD
# muscarinic receptor M3 = muscarinic receptor M3 (Homo sapiens, UniProt P20309); experiment: Off-target interaction determined by the PDSP; type: binding; settings: read-out: Off-target, receptor (h, unless noted) (Ki, μM): M3
# Chain of muscarinic receptor M3 (P20309 whole entry): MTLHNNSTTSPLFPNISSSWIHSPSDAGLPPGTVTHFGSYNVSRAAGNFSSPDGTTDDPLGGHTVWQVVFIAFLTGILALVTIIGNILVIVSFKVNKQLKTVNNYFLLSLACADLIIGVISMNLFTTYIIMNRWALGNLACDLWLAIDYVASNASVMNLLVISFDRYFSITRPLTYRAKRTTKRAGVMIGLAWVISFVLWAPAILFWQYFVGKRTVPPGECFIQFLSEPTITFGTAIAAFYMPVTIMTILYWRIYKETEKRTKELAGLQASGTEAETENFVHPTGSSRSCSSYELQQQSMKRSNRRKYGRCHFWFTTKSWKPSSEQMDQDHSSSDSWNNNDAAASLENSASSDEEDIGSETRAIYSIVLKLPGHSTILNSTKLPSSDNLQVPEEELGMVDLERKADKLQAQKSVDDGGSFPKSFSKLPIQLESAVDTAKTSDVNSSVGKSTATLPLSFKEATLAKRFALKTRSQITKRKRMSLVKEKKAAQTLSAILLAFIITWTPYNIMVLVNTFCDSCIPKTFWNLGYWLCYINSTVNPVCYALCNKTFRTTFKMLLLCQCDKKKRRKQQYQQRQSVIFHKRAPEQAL
# hA2AAR = biological target: T4, hA2AAR (Homo sapiens, UniProt P29274); experiment: Radioligand binding in membranes of HEK293 cells expressing hA2AAR; settings: read-out: A2AAR % inhibition
# T4 construct: expressed in transfected cells; host or cells: HEK293
# T4 sequence (P29274 whole entry): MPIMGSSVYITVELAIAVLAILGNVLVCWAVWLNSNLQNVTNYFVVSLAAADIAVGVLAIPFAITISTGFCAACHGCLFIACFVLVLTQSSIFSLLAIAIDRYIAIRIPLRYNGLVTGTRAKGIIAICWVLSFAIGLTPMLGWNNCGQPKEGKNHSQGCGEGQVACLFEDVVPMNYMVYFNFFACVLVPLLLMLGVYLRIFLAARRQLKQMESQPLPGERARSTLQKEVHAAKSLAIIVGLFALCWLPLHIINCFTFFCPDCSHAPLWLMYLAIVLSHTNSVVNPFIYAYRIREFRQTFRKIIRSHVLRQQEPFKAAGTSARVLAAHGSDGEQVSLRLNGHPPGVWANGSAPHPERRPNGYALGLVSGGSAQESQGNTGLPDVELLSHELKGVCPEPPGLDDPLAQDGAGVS
# mA1AR [1] = biological target: T5, mA1AR (Mus musculus, UniProt Q60612); experiment: Adenosine receptor binding, mA1AR; settings: for Ki: (m), read-out: A1AR % inhibition or Ki (converted)
# T5 sequence (Q60612 1-326): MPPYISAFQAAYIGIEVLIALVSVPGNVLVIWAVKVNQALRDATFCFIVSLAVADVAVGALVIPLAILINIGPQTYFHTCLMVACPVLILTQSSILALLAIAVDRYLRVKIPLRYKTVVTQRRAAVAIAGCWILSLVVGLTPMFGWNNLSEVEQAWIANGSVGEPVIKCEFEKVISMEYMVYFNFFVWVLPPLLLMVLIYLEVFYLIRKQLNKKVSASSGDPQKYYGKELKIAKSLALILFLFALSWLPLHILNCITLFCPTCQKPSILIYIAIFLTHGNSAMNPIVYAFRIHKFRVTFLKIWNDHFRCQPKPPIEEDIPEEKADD
# [2] = biological target: TSPO (translocator protein) (UniProt P30536); experiment: Off-target interaction determined by the PDSP; type: binding, human; settings: read-out: Off-target, receptor (h, unless noted) (Ki, μM): TSPO
# wild-type C57BL/6J mice [3] = experiment: Locomotor activity by telemetry after ip dosing; type: in vivo, mouse; settings: average from dosing to 60 min, mean±SD
# Experimental: (§1) Compounds were dosed ip. Tb and activity were measured by telemetry and the averages from dosing to 60 min were calculated. […] Data are for the highest dose used and are mean±SD from 3 to 22 mice/group (usually 5-7). P values are unpaired t-Test vs vehicle-treated controls assayed simultaneously. Vehicle data are mean±SD from all (n=83) vehicle treated mice.
# wild-type C57BL/6J mice [4] = experiment: Hypothermia (Tb by telemetry) after ip dosing; type: in vivo, mouse; settings: average from dosing to 60 min, mean±SD
# Experimental: as §1
# histamine receptor H2 = histamine receptor H2 (Homo sapiens, UniProt P25021); experiment: Off-target interaction determined by the PDSP; type: binding; settings: read-out: Off-target, receptor (h, unless noted) (Ki, μM): H2
# Chain of histamine receptor H2 (P25021 whole entry): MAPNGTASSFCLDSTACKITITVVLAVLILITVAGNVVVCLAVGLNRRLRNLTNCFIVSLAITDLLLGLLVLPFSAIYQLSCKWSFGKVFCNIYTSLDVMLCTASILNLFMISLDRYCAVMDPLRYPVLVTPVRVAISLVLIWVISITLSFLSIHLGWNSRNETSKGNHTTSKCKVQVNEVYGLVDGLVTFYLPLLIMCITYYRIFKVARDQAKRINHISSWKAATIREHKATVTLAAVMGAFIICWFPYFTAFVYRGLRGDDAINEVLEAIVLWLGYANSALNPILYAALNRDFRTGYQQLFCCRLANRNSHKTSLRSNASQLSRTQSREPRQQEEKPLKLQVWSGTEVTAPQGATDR
# mA2AAR = mA2AAR (Mus musculus, UniProt Q60613); experiment: Adenosine receptor binding, mA2AAR; settings: read-out: A2AAR % inhibition (converted)
# Chain of mA2AAR (Q60613 whole entry): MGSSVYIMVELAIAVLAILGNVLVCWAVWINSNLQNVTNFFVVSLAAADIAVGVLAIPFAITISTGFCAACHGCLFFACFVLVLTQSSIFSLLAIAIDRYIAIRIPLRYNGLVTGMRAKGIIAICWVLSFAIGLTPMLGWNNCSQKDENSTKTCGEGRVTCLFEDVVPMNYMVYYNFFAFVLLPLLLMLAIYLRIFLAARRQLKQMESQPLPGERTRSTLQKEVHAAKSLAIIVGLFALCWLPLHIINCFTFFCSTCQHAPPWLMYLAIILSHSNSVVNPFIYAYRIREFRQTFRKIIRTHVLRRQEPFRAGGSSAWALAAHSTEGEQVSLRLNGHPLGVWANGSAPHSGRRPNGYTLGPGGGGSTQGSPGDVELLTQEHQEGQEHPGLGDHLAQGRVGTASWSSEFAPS
# adrenergic receptor α2A = adrenergic receptor α2A (Homo sapiens, UniProt P08913); experiment: Off-target interaction determined by the PDSP; type: binding; settings: read-out: Off-target, receptor (h, unless noted) (Ki, μM): α2A
# Chain of adrenergic receptor α2A (P08913 whole entry): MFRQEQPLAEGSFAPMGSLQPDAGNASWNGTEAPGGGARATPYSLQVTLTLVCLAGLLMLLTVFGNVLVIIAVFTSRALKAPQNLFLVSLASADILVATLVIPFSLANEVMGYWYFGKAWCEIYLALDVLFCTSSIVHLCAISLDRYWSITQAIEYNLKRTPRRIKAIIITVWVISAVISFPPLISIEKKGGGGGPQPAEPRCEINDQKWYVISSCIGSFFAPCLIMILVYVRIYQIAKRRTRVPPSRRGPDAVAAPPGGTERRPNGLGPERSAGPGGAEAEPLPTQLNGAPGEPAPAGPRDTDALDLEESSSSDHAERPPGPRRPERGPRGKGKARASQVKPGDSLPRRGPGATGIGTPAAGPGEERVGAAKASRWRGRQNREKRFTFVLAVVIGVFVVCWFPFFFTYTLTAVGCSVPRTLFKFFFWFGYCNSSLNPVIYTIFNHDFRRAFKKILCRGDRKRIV
# mA3AR [5] = biological target: T6, mA3AR (Mus musculus, UniProt Q61618); experiment: Adenosine receptor binding, mA3AR; settings: (m); Ki; read-out: A3AR % inhibition or Ki (converted)
# T6 sequence (Q61618 1-319): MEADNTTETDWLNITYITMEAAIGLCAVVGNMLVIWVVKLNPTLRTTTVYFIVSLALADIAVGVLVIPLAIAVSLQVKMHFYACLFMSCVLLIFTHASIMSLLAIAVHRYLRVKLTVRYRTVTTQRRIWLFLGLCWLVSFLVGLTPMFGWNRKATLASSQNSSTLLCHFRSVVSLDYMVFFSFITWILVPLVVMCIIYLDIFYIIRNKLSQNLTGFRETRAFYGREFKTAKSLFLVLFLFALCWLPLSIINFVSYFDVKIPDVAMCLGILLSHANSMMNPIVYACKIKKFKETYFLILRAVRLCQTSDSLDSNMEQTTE
# sigma receptor σ1 = sigma receptor σ1 (Homo sapiens, UniProt Q99720); experiment: Off-target interaction determined by the PDSP; type: binding; settings: read-out: Off-target, receptor (h, unless noted) (Ki, μM): σ1
# Chain of sigma receptor σ1 (Q99720 whole entry): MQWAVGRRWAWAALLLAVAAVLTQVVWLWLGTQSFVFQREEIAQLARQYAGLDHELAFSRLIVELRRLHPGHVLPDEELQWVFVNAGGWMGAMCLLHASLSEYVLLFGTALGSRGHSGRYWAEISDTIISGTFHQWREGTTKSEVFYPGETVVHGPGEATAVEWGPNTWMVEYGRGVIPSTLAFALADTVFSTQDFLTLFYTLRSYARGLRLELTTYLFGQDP
# [6] = Plasma protein binding at 10 μM; type: in vitro ADME, rat; settings: unbound percent ± standard deviation
# Experimental: (§2) Plasma protein binding in human plasma, mouse plasma, and rat plasma was determined. Verapamil and warfarin served as positive controls. The results are expressed as unbound percent±standard deviation.
# [7] = Plasma protein binding at 10 μM; type: in vitro ADME, mouse; settings: unbound percent ± standard deviation
# Experimental: as §2
# [8] = Plasma protein binding at 10 μM; type: in vitro ADME, human; settings: unbound percent ± standard deviation
# Experimental: as §2
# mA1AR [9] = biological target: T5, mA1AR; experiment: Guanine nucleotide ([35S]GTPγS) binding assay; type: biochemical
# Experimental: (§3) cLogP was calculated using ChemDraw Professional, v. 16.0. Binding selectivity for mA1Ar is expressed in terms of fold, compared to mA3AR (Data from Table 1).
# mA3AR [10] = biological target: T6, mA3AR; experiment: Guanine nucleotide ([35S]GTPγS) binding assay; type: biochemical; settings: effect of 10 μM test compound as % of 10 μM 16
# Experimental: as §3
# [11] = biological target: rat brain benzodiazepine receptors (BZP); experiment: Off-target interaction determined by the PDSP; type: binding; settings: read-out: Off-target, receptor (h, unless noted) (Ki, μM): BZP (r)
# muscarinic receptor M5 = muscarinic receptor M5 (Homo sapiens, UniProt P08912); experiment: Off-target interaction determined by the PDSP; type: binding; settings: read-out: Off-target, receptor (h, unless noted) (Ki, μM): M5
# Chain of muscarinic receptor M5 (P08912 whole entry): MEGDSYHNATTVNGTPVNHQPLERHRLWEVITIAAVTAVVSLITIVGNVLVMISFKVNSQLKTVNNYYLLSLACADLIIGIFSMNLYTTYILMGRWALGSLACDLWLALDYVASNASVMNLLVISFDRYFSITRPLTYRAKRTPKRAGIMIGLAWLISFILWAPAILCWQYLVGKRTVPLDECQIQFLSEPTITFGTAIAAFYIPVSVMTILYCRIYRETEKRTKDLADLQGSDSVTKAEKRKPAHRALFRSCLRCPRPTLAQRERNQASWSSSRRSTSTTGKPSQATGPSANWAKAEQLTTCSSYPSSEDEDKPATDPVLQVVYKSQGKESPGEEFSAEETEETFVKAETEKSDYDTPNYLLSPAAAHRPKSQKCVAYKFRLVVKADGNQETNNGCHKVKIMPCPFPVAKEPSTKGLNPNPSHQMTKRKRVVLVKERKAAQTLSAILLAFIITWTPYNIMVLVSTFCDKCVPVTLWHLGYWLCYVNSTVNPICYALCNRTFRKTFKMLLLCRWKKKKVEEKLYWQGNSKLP
# [12] = biological target: dopamine transporter (DAT) (Homo sapiens, UniProt Q01959); experiment: Off-target interaction determined by the PDSP; type: binding; settings: read-out: Off-target, receptor (h, unless noted) (Ki, μM): DAT
# Chain of dopamine transporter (DAT) (Q01959 whole entry): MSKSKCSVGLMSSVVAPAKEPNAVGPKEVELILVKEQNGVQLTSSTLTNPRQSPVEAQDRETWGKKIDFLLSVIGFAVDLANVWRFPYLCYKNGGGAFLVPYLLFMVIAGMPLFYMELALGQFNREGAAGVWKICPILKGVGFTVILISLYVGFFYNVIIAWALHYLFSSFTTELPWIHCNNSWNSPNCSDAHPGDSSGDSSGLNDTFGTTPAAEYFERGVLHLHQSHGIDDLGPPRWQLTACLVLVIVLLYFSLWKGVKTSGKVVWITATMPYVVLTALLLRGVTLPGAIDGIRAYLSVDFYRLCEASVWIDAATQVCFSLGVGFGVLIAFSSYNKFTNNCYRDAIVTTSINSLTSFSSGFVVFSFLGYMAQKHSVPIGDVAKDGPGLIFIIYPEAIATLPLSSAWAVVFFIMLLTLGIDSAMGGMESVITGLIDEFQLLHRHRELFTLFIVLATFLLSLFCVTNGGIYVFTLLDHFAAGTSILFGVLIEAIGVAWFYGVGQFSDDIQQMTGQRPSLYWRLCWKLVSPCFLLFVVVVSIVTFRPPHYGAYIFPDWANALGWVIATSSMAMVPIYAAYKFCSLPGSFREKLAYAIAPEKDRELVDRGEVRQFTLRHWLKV
Structure (SMILES),Ki (hA3AR) [nM],Ki (serotonin receptor 5HT2B) [µM],Ki (sigma receptor σ2) [µM],Ki (serotonin receptor 5HT2C) [µM],Ki (hA1AR) [nM],inhibition at 10 µM (hA2AAR) [%],Ki (mA1AR [1]) [nM],Ki [2] [µM],Activity (counts) (wild-type C57BL/6J mice [3]; 10 mg/kg ip),Tb (° C.) (wild-type C57BL/6J mice [4]; 10 mg/kg ip) [°C],inhibition at 10 µM (mA2AAR) [%],inhibition at 10 µM (hA3AR) [%],Ki (mA3AR [5]) [nM],Activity (counts) (wild-type C57BL/6J mice [3]; 3 mg/kg ip),Ki (sigma receptor σ1) [µM],Tb (° C.) (wild-type C57BL/6J mice [4]; 3 mg/kg ip) [°C],further results
"CCOC(=O)[C@@]12C[C@@H]1[C@@H](n1cnc3c(NC(C4CCC4)C4CCC4)nc(Cl)nc31)[C@H](O)[C@@H]2O [Compound 35, Ethyl (1S,2R,3S,4R,5S)-4-(2-Chloro-6-((dicyclobutylmethyl)amino)-9H-purin-9-yl)-2,3-dihydroxybicyclo[3.1.0]hexane-1-carboxylate]",1160 ± 300,0.097,2.02,0.089,73.8 ± 14.2,57 ± 12,,,,,,,,,,,Ki (muscarinic receptor M3): 5.9 µM
"O[C@H]1[C@H](n2cnc3c(NC(C4CCC4)C4CCC4)nc(Cl)nc32)[C@H]2C[C@@]2(CCl)[C@H]1O [Compound 27, (1S,2R,3S,4R,5S)-4-(2-Chloro-6-((dicyclobutylmethyl)amino)-9H-purin-9-yl)-1-(chloromethyl)bicyclo[3.1.0]hexane-2,3-diol]",3820 ± 1820,,0.349,1.75,120 ± 23,17 ± 24,11.2,2.89,18.9 ± 10.2,36.5 ± 0.6,20,,,,,,Ki (histamine receptor H2): 2.6 µM
"O[C@H]1[C@H](n2cnc3c(NC(C4CCC4)C4CCC4)ncnc32)[C@H]2C[C@@]2(CCl)[C@H]1O [Compound 26, (1S,2R,3S,4R,5S)-1-(Chloromethyl)-4-(6-((dicyclobutylmethyl)amino)-9H-purin-9-yl)bicyclo[3.1.0]hexane-2,3-diol]",,2.01,1.17,,32.7 ± 12.4,38 ± 3,1.05,2.02,,,,49 ± 4,934,14.8 ± 1.7,1.5,35.9 ± 0.5,Ki (adrenergic receptor α2A): 6.8 µM
"OC[C@@]12C[C@@H]1[C@@H](n1cnc3c(NC(C4CCC4)C4CCC4)ncnc31)[C@H](O)[C@@H]2O [Compound 24, (1R,2R,3S,4R,5S)-4-(6-((Dicyclobutylmethyl)amino)-9H-purin-9-yl)-1-(hydroxymethyl)bicyclo[3.1.0]hexane-2,3-diol]",,0.214,0.753,1.32,22.7 ± 3,34 ± 1,0.53,,,,,51 ± 6,918,18.1 ± 6.8,1.79,36.2 ± 0.4,"rat, % free [6]: 17.8 ± 1.2%; mouse, % free [7]: 27.5 ± 1.7%; human, % free [8]: 14.6 ± 1.3%; Binding selectivity for mA1AR (mA1AR [1]; compared to mA3AR): (1730) fold; Emax at 10 µM (mA1AR [9]): 97 ± 11%; Emax at 10 µM (mA3AR [10]): 92 ± 3%; Ki [11]: 4.08 µM"
"OC[C@@]12C[C@@H]1[C@@H](n1cnc3c(NC(C4CCC4)C4CCC4)nc(Cl)nc31)[C@H](O)[C@@H]2O [Compound 25, (1R,2R,3S,4R,5S)-4-(2-Chloro-6-((dicyclobutylmethyl)amino)-9H-purin-9-yl)-1-(hydroxymethyl)bicyclo[3.1.0]hexane-2,3-diol]",,,,0.238,8.96 ± 1.02,55 ± 5,2.47,2.93,18.4 ± 3.2,36.6 ± 0.2,26,25 ± 2,612,,,,Ki (muscarinic receptor M5): 3 µM; Ki [12]: 4.75 µM

# Source: US12378248B2 (The United States of America, as represented by the …, priority 2018, dated 2025)
